# Tested on: 422866-222-R5-J1-PDC spheroids with HUVEC/MSC, viability
# Assay: Anticancer human tumor 422866-222-R5-J1-PDC patient-derived pancreatic adenocarcinoma cell line growth inhibition [GQUAD]
# Conditions: for IC50: curve of first compound; for viability, T/C: stronger effect = lower value
# Outline: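 Tumor cells were grown as complex spheroids with HUVEC endothelial cells and mesenchymal stem cells as stroma. G-quadruplex stabilizers were combined with targeted agents over half-log dilutions from near the clinical Cmax, or from 10 microM.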
# [1] = second compound 0.0316 µM, first compound 0.0316 µM
# [2] = second compound 0.0316 µM, first compound 0.1 µM
# [3] = second compound 0.0316 µM, first compound 0.316 µM
# [4] = second compound 0.0316 µM, first compound 1 µM
# [5] = second compound 0.0316 µM, first compound 3.16 µM
# [6] = second compound 0.0316 µM, first compound 10 µM
# [7] = second compound 0.1 µM, first compound 0.0316 µM
# [8] = second compound 0.1 µM, first compound 0.1 µM
# [9] = second compound 0.1 µM, first compound 0.316 µM
# [10] = second compound 0.1 µM, first compound 1 µM
# [11] = second compound 0.1 µM, first compound 3.16 µM
# [12] = second compound 0.1 µM, first compound 10 µM
# [13] = second compound 0.316 µM, first compound 0.0316 µM
# [14] = second compound 0.316 µM, first compound 0.1 µM
# [15] = second compound 0.316 µM, first compound 0.316 µM
# [16] = second compound 0.316 µM, first compound 1 µM
# [17] = second compound 0.316 µM, first compound 3.16 µM
# [18] = second compound 0.316 µM, first compound 10 µM
# [19] = second compound 1 µM, first compound 0.0316 µM
# [20] = second compound 1 µM, first compound 0.1 µM
# [21] = second compound 1 µM, first compound 0.316 µM
# [22] = second compound 1 µM, first compound 1 µM
# [23] = second compound 1 µM, first compound 3.16 µM
# [24] = second compound 1 µM, first compound 10 µM
# [25] = second compound 3.16 µM, first compound 0.0316 µM
# [26] = second compound 3.16 µM, first compound 0.1 µM
# [27] = second compound 3.16 µM, first compound 0.316 µM
# [28] = second compound 3.16 µM, first compound 1 µM
# [29] = second compound 3.16 µM, first compound 3.16 µM
# [30] = second compound 3.16 µM, first compound 10 µM
# [31] = second compound 10 µM, first compound 0.0316 µM
# [32] = second compound 10 µM, first compound 0.1 µM
# [33] = second compound 10 µM, first compound 0.316 µM
# [34] = second compound 10 µM, first compound 1 µM
# [35] = second compound 10 µM, first compound 3.16 µM
# [36] = second compound 10 µM, first compound 10 µM
# 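Further: spheroids exposed to compounds for seven days before reading.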
# 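Wherever viability, T/C is given: percent viability relative to DMSO vehicle control taken as 100%.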
smiles,measurement,setting,value
C#Cc1c(F)ccc2cc(O)cc(-c3ncc4c(N5CC6CCC(C5)N6)nc(OCC56CCCN5CC(F)C6)nc4c3F)c12 (stereo unspecified) + Cc1[nH]c2ccc(F)cc2c1-c1nc2c3cccnc3c3ncccc3c2[nH]1,IC50,second compound 0.0316 µM,2180 nM
same,IC50,second compound 0.1 µM,2230 nM
same,IC50,second compound 0.316 µM,1930 nM
same,IC50,second compound 1 µM,2160 nM
same,IC50,second compound 3.16 µM,736 nM
same,IC50,second compound 10 µM,998 nM
same,"viability, T/C",[1],96.1%
same,"viability, T/C",[2],96.4%
same,"viability, T/C",[3],84.4%
same,"viability, T/C",[4],78%
same,"viability, T/C",[5],30.2%
same,"viability, T/C",[6],43.2%
same,"viability, T/C",[7],106%
same,"viability, T/C",[8],92.1%
same,"viability, T/C",[9],98.4%
same,"viability, T/C",[10],75.3%
same,"viability, T/C",[11],39.1%
same,"viability, T/C",[12],33.4%
same,"viability, T/C",[13],106%
same,"viability, T/C",[14],86%
same,"viability, T/C",[15],84%
same,"viability, T/C",[16],64.4%
same,"viability, T/C",[17],35%
same,"viability, T/C",[18],37.4%
same,"viability, T/C",[19],75.9%
same,"viability, T/C",[20],98.3%
same,"viability, T/C",[21],91.6%
same,"viability, T/C",[22],69%
same,"viability, T/C",[23],40.4%
same,"viability, T/C",[24],40.8%
same,"viability, T/C",[25],87.2%
same,"viability, T/C",[26],75.5%
same,"viability, T/C",[27],70.6%
same,"viability, T/C",[28],42.8%
same,"viability, T/C",[29],30.7%
same,"viability, T/C",[30],34.6%
same,"viability, T/C",[31],71.3%
same,"viability, T/C",[32],57.6%
same,"viability, T/C",[33],67%
same,"viability, T/C",[34],46.9%
same,"viability, T/C",[35],39.4%
same,"viability, T/C",[36],38%
CC(=O)O[C@H]1C(=O)[C@@]2(C)[C@H]([C@H](OC(=O)c3ccccc3)[C@]3(O)C[C@H](OC(=O)[C@H](O)[C@@H](NC(=O)c4ccccc4)c4ccccc4)C(C)=C1C3(C)C)[C@]1(OC(C)=O)CO[C@@H]1C[C@@H]2O + Cc1[nH]c2ccc(F)cc2c1-c1nc2c3cccnc3c3ncccc3c2[nH]1,IC50,second compound 0.0316 µM,671 nM
same,IC50,second compound 0.1 µM,1300 nM
same,IC50,second compound 0.316 µM,2040 nM
same,IC50,second compound 1 µM,1720 nM
same,IC50,second compound 3.16 µM,2160 nM
same,IC50,second compound 10 µM,2040 nM
same,"viability, T/C",[1],143%
same,"viability, T/C",[2],143%
same,"viability, T/C",[3],74.7%
same,"viability, T/C",[4],39%
same,"viability, T/C",[5],44.4%
same,"viability, T/C",[6],1.31%
same,"viability, T/C",[7],109%
same,"viability, T/C",[8],128%
same,"viability, T/C",[9],100%
same,"viability, T/C",[10],48.5%
same,"viability, T/C",[11],37.1%
same,"viability, T/C",[12],2.15%
same,"viability, T/C",[13],122%
same,"viability, T/C",[14],107%
same,"viability, T/C",[15],99.5%
same,"viability, T/C",[16],55.3%
same,"viability, T/C",[17],46.9%
same,"viability, T/C",[18],3.01%
same,"viability, T/C",[19],117%
same,"viability, T/C",[20],115%
same,"viability, T/C",[21],98.5%
same,"viability, T/C",[22],53.4%
same,"viability, T/C",[23],42%
same,"viability, T/C",[24],2.03%
same,"viability, T/C",[25],70.5%
same,"viability, T/C",[26],75%
same,"viability, T/C",[27],95%
same,"viability, T/C",[28],43.4%
same,"viability, T/C",[29],50%
same,"viability, T/C",[30],3.32%
same,"viability, T/C",[31],56.1%
same,"viability, T/C",[32],62%
same,"viability, T/C",[33],58.2%
same,"viability, T/C",[34],46.6%
same,"viability, T/C",[35],49.7%
same,"viability, T/C",[36],4.03%
CCCS(=O)(=O)Nc1ccc(F)c(C(=O)c2c[nH]c3ncc(-c4ccc(Cl)cc4)cc23)c1F + Cc1[nH]c2ccc(F)cc2c1-c1nc2c3cccnc3c3ncccc3c2[nH]1,IC50,second compound 0.0316 µM,559 nM
same,IC50,second compound 0.1 µM,1020 nM
same,IC50,second compound 0.316 µM,1100 nM
same,IC50,second compound 1 µM,591 nM
same,IC50,second compound 3.16 µM,293 nM
same,IC50,second compound 10 µM,139 nM
same,"viability, T/C",[1],114%
same,"viability, T/C",[2],93.4%
same,"viability, T/C",[3],61.5%
same,"viability, T/C",[4],37.4%
same,"viability, T/C",[5],34.5%
same,"viability, T/C",[6],36.7%
same,"viability, T/C",[7],110%
same,"viability, T/C",[8],88.5%
same,"viability, T/C",[9],61.4%
same,"viability, T/C",[10],52.4%
same,"viability, T/C",[11],40.6%
same,"viability, T/C",[12],32.3%
same,"viability, T/C",[13],134%
same,"viability, T/C",[14],95.6%
same,"viability, T/C",[15],75.6%
same,"viability, T/C",[16],43.8%
same,"viability, T/C",[17],43.4%
same,"viability, T/C",[18],29%
same,"viability, T/C",[19],85.2%
same,"viability, T/C",[20],90.3%
same,"viability, T/C",[21],63.1%
same,"viability, T/C",[22],41.5%
same,"viability, T/C",[23],38.1%
same,"viability, T/C",[24],37%
same,"viability, T/C",[25],67.3%
same,"viability, T/C",[26],52.8%
same,"viability, T/C",[27],53.1%
same,"viability, T/C",[28],45.2%
same,"viability, T/C",[29],43%
same,"viability, T/C",[30],41.9%
same,"viability, T/C",[31],58.2%
same,"viability, T/C",[32],50.8%
same,"viability, T/C",[33],47.5%
same,"viability, T/C",[34],50.3%
same,"viability, T/C",[35],43.2%
same,"viability, T/C",[36],49.9%

# From PubChem BioAssay AID2060511 (Molecular Pharmacology Branch, DTP, NCI, 2025)
